Measured values from patent US7737250B2, “Peptides for treating axonal damage, inhibition of neurotransmitter release and pain transmission, and blocking calcium influx in neurons” (Mount Sinai School of Medicine of New York University, priority 2003, dated 2010).

How the values were obtained:
Cav2.2 channels = assay: Calcium channel distribution by confocal indirect immunofluorescence in DRG neurons; format: cell-based, chicken; conditions: DRG neurons pretreated with peptide 1.4 μg/ml, 30 min
Description: Antibodies: Primary antibody: rabbit anti-pan α1 binds Ca channel (1:200 dilution, [1.5 μg/ml) [Alomone Labs; Jerusalem, Israel]. Secondary antibodies: (1:200 dilution, 10 μg/ml): tetramenthylrhodamine conjugated goat anti-rabbit IgG (H+L) [Molecular Probes; Eugene, OR]
Dorsal root ganglia were dissected from 11 to 12 day old embryos, incubated for 30 min in saline containing nominal Ca 2^+ and Mg 2^+, and 0.05% collagenase (type A, Boehringer Mannheim). Ganglia were dissociated mechanically into single cells by trituration in culture medium containing Dulbecco's modified Eagle's medium supplemented with 10% horse serum, 5% chicken embryo extract, penicillin, streptomycin, glutamine, and nerve growth factor. Cells were plated at a density of ˜50,000 cells/collagen-coated 35 mm tissue culture dish and studied between 1 and 3 days in vitro.
Immunohistochemistry: Cultures grown on poly-L-lysine cover glass slips were exposed to saline or 100 mM NE (norepinephrine), fixed and permeabilized in methanol at −20° C. for 15-minutes or 20 second (for residual experiment) followed by 3×5-min washes in PHEM Buffer [60 mM PIPES, 25 mM HEPES, 10 mM EGTA, 2 mM MgCl2, pH 6.9]. Cells were alternatively fixed with 4% paraformaldehyde in PHEM buffer, pH 6.9 for 20-min, washed 3×3-min with PHEM buffer and permeabilization with 0.1% Triton X-100/PHEM buffer for 3-min. Blocking was performed using 5% BSA in PHEM Buffer for 1-h at 4 C. Following overnight incubation with primary antibody in 1% BSA and 1% normal goat sera in PHEM Buffer at 4 C. After washes with PHEM Buffer, cover slips were incubated with fluorophore-conjugated secondary antibodies in 1% BSA PHEM Buffer for 1.5 hours at room temperature in the dark. […]
Images of fixed cells were obtained with a pinhole setting of 0.95 using a UV 100× 1.4NA oil Leica objective lens and an optical zoom between 1.4 and 2× at slow acquisition speed with 4× frame averaging accumulation. The number of sections was calculated by the Leica TCS software based on acquisition of sections at 240 nm intervals in the Z-plane. […]

Cav2.2 current = assay: Whole-cell calcium current recording in DRG neurons; format: cell-based, chick; conditions: 1.4 ng/ml peptide in recording pipette; after 2 minutes of recording
Description: Electrophysiology: Standard tight seal, whole-cell recording methods [Hamill et al.,1981 Pflugers Arch. 381, 85-10] were employed. Cells were incubated in an external solution containing 133 mM NaCl, 1 mM CaCl2, 0.8 mM MgCl2, 25 mM HEPES, 12.5 mM NaOH, 5mM glucose, 10 mM tetraethylammonium chloride, […] (pH 7.4). Experiments were performed on the stage of an inverted microscope. Recording pipettes were fabricated from microhemnatocrit tubing (Fisher) and filled with an internal recording solution containing 150 mM CsCl, 5 BAPTA, 5 MgATP, 10 HEPES (pH 7.2). All salts were obtained from Fluka. Initial pipette resistances were 0.8-1.2 MΩ. […]
Electrophysiology Data Analysis—Data was filtered at 3 kHz, acquired at 10-20 kHz and analyzed using PulseFit (HEKA) and IgorPro (WaveMetrics) on a Macintosh G3 computer. […] Such conditioning pulses have no effect on control currents recorded in the absence of GABA. During the application of the transmitter, test pulse currents measured before and after the conditioning pulse are subtracted to yield the voltage-dependent component. Test pulses measured following the conditioning pulse are subtracted from control currents (measured in the absence of GABA) to yield the voltage-independent component.

| Sequence | Cav2.2 channel distribution (plasma membrane vs cytoplasm) (Cav2.2 channels) | inhibition of calcium current (Cav2.2 current) |
| --- | --- | --- |
| RQIKIWFQNRRMKWKKQFNEDGSFIGQF [AP-YF] | induces removal of Cav2.2 channels | 83+17% |
| RQIKIWFQNRRMKWKKFQGIFSGDENFQ [AP-Scramble] | no effect | no significant effect |
